Calls of active or inactive are those of the source.
Assays:
[1] = Luminescence Cell-Based Dose Confirmation HTS to Identify Activators of 5'UTR Stem-Loop Driven Alpha-Synuclein mRNA Translation in H4 Neuroglioblastoma Cells. [Related pubchem assays: 1829 (Project Summary), 1814 (Primary HTS)]; format: functional
[2] = Luminescence Cell-Based Dose Response HTS to Identify Activators of Luciferase Translation or Activity in H4 […] Cells. [Related pubchem assays: 1829 (Project Summary), 1814 (Primary HTS)]; format: functional
[3] = tested on: H4; test: Luminescence Cell-Based Dose Response HTS to Identify Activators of 5'UTR Stem-Loop Driven Prion Protein mRNA Translation in H4 Neuroglioblastoma Cells. [Related pubchem assays: 1829 (Project Summary), 1814 (Primary HTS)]; format: functional; details: Homo sapiens
[4] = biological target: G-protein coupled receptor 55 (Homo sapiens, UniProt Q9Y2T6); test: inhibition of LPI-stimulated GPR55 beta-arrestin translocation – imaging, U2OS, beta-arrestin-GFP, LPI agonist, primary screen (AID 2013); format: functional;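 note: antagonist potency measured as reduced agonist-driven arrestin aggregation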
Chain of G-protein coupled receptor 55 (Q9Y2T6 whole entry): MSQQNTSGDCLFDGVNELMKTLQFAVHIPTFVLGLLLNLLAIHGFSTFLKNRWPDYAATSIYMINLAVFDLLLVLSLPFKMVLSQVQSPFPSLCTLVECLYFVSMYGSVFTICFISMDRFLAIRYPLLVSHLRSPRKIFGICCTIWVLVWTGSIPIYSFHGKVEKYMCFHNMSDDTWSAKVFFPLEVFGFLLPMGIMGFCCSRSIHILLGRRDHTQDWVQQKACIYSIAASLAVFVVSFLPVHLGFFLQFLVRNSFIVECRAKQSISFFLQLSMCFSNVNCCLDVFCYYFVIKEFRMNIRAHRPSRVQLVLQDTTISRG

[5] = biological target: T1, Replicative DNA helicase DnaB (Mycobacterium tuberculosis, UniProt P9WMR3); test: DnaB intein splicing inhibitors, dose response, biochemical, cell-free fluorescence (AID 449749); format: functional
T1 sequence (P9WMR3 whole entry): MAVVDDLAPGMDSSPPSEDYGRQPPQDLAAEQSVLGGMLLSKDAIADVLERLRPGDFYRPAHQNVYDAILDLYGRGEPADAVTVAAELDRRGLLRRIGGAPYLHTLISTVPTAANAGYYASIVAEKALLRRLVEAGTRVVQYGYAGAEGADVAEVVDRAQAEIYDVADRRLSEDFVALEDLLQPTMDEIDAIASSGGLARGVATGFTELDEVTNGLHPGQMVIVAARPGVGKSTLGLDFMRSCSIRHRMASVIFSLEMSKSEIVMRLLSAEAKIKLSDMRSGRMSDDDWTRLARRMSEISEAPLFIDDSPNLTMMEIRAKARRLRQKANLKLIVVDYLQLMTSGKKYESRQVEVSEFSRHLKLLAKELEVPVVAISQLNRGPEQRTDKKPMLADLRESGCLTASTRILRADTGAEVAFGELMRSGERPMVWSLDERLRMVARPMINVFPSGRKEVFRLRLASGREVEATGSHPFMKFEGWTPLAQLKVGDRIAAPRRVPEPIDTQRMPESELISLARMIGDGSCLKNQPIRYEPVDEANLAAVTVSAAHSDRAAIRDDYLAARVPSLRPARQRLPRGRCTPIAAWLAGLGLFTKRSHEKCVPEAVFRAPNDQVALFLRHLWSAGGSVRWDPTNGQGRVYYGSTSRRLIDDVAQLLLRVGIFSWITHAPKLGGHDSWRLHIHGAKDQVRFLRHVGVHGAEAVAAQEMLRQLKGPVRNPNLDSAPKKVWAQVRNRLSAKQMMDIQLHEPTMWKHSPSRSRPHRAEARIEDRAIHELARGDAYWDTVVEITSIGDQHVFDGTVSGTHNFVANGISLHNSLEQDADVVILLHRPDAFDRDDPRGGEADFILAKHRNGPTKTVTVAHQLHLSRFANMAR

[6] = biological target: T2, Protein RecA (Mycobacterium tuberculosis, UniProt P9WHJ3); test: Fluorescence Cell-Free Homogeneous Dose Retest to Identify Inhibitors of RecA-Intein Splicing Activity. [Related pubchem assays (depositor defined):AID2097, AID2223, AID489010, AID492950]; format: functional
T2 sequence (P9WHJ3 whole entry): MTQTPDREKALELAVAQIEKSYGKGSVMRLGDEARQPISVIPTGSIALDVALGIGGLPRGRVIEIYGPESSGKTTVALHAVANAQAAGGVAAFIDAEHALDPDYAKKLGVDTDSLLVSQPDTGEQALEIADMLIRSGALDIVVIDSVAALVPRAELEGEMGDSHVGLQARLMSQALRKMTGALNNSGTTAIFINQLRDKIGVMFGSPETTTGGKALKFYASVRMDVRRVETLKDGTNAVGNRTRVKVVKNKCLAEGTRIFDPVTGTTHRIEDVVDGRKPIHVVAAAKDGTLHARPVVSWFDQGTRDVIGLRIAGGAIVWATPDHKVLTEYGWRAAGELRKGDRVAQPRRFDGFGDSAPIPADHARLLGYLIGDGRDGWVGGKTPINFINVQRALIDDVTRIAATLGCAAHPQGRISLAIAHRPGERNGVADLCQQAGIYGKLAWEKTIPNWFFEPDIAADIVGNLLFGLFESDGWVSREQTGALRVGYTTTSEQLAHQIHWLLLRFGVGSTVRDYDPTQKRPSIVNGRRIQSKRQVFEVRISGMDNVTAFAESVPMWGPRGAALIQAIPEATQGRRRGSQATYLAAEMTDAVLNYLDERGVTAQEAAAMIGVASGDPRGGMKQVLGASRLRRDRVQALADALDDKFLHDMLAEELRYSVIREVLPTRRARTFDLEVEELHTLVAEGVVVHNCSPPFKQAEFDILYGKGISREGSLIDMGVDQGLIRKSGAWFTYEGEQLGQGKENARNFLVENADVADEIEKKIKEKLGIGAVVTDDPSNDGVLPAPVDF

[7] = HGIII-sPLA2 enzyme inhibition potency – biochemical, QFRET, IC50, dose response (AID 743457);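 note: green fluorescence rise as the enzyme cleaves BODIPY PC-A2 in liposomes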
[8] = tested on: HEK293; test: cells; details: Homo sapiens
[9] = tested on: HEK293; test: cells; details: Homo sapiens; remark: listed apart in the source
[10] = biological target: Fructose-bisphosphate aldolase (Mycobacterium tuberculosis, UniProt P9WQA3); test: Fluorescence-based biochemical high throughput dose response assay for inhibitors of the fructose-bisphosphate aldolase (FBA) of M. tuberculosis.; format: functional
Chain of Fructose-bisphosphate aldolase (P9WQA3 whole entry): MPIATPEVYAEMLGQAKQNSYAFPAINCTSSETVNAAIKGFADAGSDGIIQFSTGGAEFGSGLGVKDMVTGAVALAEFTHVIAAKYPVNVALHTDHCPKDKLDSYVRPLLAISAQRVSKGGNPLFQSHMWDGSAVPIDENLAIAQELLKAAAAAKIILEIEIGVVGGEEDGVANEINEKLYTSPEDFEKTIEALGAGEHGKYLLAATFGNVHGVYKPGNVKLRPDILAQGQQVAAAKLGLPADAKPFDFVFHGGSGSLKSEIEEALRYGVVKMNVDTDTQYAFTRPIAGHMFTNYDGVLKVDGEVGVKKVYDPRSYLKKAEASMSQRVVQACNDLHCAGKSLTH

[11] = NIH-3T3 fibroblast cytotoxicity, dose response, cytotoxicity control, cell-based, fluorescence, Alamar Blue, secondary assay (AID 2327); format: functional;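 note: NIH-3T3 mouse fibroblasts cultured with fluconazole at 8 µg/mL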
[12] = fluconazole-exposed Candida albicans growth modulators – fluorescence, retest, confirmation (AID 2467); format: functional, cell-based
[13] = Trypanosoma cruzi growth suppression in host cells – NIH3T3 host cells, beta-gal luminescence, confirmation (AID 2044); format: functional, cell-based;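 note: intracellular parasites grown in NIH/3T3 mouse fibroblasts as host cells; luminescent beta-galactosidase reporter signal from transgenic T. cruzi replicating inside host cells; inhibitors lower the luminescence signal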
[14] = NIH3T3 cell viability loss – ATP luminescence, mouse fibroblasts, counter-screen, dose response (AID 2010); format: functional, cell-based;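 note: cells exposed to compound for about 90 hours before reading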
[15] = biological target: Cytochrome P450 2C19 (Homo sapiens, UniProt P33261); test: Cytochrome panel assay with activity outcomes. Panel member name: p450-cyp2c19 Compounds with AC50 equal or less than 10 uM are considered active; format: functional
Chain of Cytochrome P450 2C19 (P33261 whole entry, the tested form may be a part): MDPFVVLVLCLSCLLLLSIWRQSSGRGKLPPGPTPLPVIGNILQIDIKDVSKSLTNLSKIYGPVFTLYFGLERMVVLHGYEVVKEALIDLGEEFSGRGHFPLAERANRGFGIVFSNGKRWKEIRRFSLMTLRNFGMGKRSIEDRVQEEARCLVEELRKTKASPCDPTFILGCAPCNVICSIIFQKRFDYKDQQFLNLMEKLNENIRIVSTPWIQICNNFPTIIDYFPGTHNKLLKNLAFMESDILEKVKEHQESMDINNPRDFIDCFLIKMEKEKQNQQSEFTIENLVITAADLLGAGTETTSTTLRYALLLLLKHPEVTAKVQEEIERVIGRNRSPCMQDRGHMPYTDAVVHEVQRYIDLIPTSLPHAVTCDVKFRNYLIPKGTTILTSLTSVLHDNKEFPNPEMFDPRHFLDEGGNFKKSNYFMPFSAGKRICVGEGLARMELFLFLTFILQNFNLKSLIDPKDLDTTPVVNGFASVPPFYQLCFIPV

[16] = blockers of HIV-1 envelope-mediated cell-cell fusion – cherry-pick, dose response (AID 652057); format: functional, cell-based
[17] = viability loss in CEM21 cells – cell-based, CellTiter-Glo luminescence, cherry-picked, cytotoxicity control for viral fusion inhibitor project, dose response (AID 652042); format: functional;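 note: potency for signal decrease meaning cytotoxicity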
[18] = blockers of HIV-1 ZM109 envelope-driven cell-cell fusion – HeLa effector, CEM target cells, luciferase, cherry-pick, dose response (AID 652058); format: functional, cell-based;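 note: luciferase signal from HIV-1 Env mediated cell-cell fusion of effector and target cells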
[19] = off-target signal loss in HeLa-CEM21 co-culture – HeLa F-luc CTL cells, cherry-picked, counter-screen for HIV-1 Env fusion inhibitor project, dose response (AID 652040); format: functional, cell-based;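 note: potency for signal decrease marking cytotoxic or nonspecific inhibition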
[20] = HIV-1 AD8 envelope cell-cell fusion blockers – cherry-pick, dose response (AID 652062); format: functional, cell-based;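 note: luciferase signal from cell-cell fusion driven by HIV-1 clade B AD8 Env; potency is for inhibitors of fusion seen as a drop in luminescence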
[21] = cells
[22] = biological target: Beta-galactosidase (Escherichia coli, UniProt Q8VNN2); test: Dose response counterscreen for EBI2 assay utilizing the enzyme, b-galactosidase.; format: functional
Chain of Beta-galactosidase (Q8VNN2 whole entry): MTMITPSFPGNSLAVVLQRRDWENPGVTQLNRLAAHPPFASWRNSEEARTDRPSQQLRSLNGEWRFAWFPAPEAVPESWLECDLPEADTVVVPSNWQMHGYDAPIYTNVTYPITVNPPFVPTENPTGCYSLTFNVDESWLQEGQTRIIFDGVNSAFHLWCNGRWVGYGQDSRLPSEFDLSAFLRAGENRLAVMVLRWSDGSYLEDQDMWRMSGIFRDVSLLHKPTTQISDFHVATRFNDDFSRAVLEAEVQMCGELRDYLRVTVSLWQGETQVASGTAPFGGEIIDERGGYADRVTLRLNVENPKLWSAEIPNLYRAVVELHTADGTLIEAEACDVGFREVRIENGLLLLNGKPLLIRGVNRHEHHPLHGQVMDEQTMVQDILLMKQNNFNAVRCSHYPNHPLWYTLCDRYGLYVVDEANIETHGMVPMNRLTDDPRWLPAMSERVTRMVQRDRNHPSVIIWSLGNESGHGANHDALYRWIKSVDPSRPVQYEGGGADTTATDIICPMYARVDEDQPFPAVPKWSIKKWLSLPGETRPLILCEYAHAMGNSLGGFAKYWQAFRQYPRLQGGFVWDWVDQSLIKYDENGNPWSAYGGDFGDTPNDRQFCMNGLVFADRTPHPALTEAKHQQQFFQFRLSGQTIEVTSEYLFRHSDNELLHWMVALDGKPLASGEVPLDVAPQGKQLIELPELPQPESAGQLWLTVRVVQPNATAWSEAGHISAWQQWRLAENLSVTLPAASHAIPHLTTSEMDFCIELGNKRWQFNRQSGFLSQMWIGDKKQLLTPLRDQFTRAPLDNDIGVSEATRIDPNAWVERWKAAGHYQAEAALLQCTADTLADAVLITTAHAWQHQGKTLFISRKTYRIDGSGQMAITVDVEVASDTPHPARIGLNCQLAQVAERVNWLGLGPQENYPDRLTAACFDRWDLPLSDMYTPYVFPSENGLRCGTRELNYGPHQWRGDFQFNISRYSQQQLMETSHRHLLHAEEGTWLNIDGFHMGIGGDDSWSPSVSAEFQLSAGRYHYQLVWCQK

[23] = human cervical cancer cell viability loss – 24 h, plate reader, dry powder, cytotoxicity control, dose response (AID 686928); format: functional, cell-based; details: HeLa
[24] = HEK-293T viability loss after treatment – luminescence, T-cell screen hits, cytotoxicity control for TCR NF-kB inhibitor project, dose response (AID 489026); format: functional, cell-based;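 note: cells exposed to compound about 14 hours before the viability readout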
[25] = cells; format: functional, cell-based
[26] = biological target: Nuclear receptor subfamily 0 group B member 1 (Homo sapiens, UniProt P51843); format: functional, cell-based;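 note: HEK293T cells transfected with SF-1 and DAX-1 plus StAR promoter luciferase reporter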
Chain of Nuclear receptor subfamily 0 group B member 1 (P51843 whole entry): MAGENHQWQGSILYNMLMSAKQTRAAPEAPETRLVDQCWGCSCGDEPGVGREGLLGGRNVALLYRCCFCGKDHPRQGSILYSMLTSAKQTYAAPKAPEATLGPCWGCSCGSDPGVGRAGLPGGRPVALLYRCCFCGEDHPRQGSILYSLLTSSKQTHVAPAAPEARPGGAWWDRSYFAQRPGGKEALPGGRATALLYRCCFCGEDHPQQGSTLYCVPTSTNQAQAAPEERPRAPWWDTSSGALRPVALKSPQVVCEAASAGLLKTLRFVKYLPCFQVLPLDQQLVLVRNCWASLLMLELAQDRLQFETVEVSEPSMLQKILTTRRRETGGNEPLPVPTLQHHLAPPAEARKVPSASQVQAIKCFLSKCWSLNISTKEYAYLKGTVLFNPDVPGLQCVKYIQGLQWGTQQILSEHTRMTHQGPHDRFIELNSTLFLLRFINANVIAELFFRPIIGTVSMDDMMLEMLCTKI

[27] = activation of miR-122 Renilla sensor silencing – cell-based, Huh7 psiCHECK-miR122, Renilla luciferase, cherry-picked, dose response (AID 651956); format: functional;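 note: huh7 hepatoma cells stably carrying a psiCHECK-2 miR-122 sensor plasmid; renilla luciferase signal reporting endogenous miR-122 activity after 48 h compound exposure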
[28] = general mammalian cell viability loss – inhibitor set, cherry-pick, set 2, cytotoxicity control for miR-122 modulator project, dose response (AID 720697); format: functional, cell-based
[29] = inhibition of bursicon-driven LGR2 cAMP signaling – cell-based, HEK293, CRE-luciferase reporter, cherry pick, dose response (AID 743342); format: functional
[30] = blockade of melanocortin 4 receptor signaling – cell-based, plate reader, cherry pick, counter-screen for LGR2 antagonist project, dose response (AID 743444); format: functional;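 note: transfected HEK 293 cells stimulated with alpha-MSH peptide; potency of inhibitors of the alpha-MSH evoked signal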
[31] = A549 cell cytotoxicity, dose response, cytotoxicity control, plate reader, cherry-pick, antagonist series (AID 743412); format: functional, cell-based
[32] = toxicity toward HepG2 liver cells – cell-based, plate reader, cherry-pick, antagonist series, cytotoxicity control, dose response (AID 743416); format: functional
[33] = viability loss in HEK293 cells – cell-based, plate reader, cherry-picked samples, cytotoxicity control, dose response (AID 743446); format: functional
[34] = luciferase reporter signal suppression in cells – H4 neuroglioma cells, luminescence, dose response (AID 1990); format: functional, cell-based
[35] = Luminescence Cell-Based Dose Response HTS to Identify Inhibitors of 5'UTR Stem-Loop Driven Prion Protein mRNA Translation in H4 Neuroglioblastoma Cells. [Related pubchem assays: 1827 (Project Summary), 1813 (Primary HTS)]; format: functional
[36] = alpha-synuclein stem-loop luciferase translation blockers – H4 neuroglioma cells, luminescence, confirmation (AID 1988); format: functional, cell-based
[37] = biological target: Disintegrin and metalloproteinase domain-containing protein 17 (Homo sapiens, UniProt P78536); test: exosite inhibitors of ADAM17, dose response, biochemical (AID 743260)
Chain of Disintegrin and metalloproteinase domain-containing protein 17 (P78536 whole entry, the tested form may be a part): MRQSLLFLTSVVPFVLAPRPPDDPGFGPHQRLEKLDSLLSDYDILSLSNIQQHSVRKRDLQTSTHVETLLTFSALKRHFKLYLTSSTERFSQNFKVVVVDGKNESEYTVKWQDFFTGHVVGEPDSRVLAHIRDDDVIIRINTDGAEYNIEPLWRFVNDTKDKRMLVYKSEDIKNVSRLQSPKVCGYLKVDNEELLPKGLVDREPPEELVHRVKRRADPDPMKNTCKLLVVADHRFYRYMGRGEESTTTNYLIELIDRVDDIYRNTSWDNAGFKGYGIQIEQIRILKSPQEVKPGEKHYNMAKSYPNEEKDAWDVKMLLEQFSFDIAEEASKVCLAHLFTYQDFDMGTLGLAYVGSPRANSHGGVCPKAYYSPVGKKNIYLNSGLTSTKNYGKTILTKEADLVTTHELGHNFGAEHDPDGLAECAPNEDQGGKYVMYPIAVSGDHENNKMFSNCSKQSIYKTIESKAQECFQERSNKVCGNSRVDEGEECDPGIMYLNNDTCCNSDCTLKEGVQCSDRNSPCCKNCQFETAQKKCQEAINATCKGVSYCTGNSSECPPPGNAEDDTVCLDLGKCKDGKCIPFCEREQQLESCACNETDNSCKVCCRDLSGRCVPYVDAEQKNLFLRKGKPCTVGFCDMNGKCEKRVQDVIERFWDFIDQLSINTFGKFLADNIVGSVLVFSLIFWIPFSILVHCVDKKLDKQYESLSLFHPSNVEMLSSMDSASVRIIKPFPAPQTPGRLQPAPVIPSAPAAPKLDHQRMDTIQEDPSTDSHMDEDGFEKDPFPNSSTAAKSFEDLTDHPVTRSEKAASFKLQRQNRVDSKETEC

[38] = inhibition of ADAM10 peptide cleavage – biochemical, FRET peptide substrate, recombinant human ADAM10, selectivity assay for ADAM17 exosite inhibitor project, dose response (AID 743259);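 note: ADAM10 enzyme cleaving a FRET peptide substrate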

Structure (SMILES): CCOC(=O)c1c(CSC(=N)N)n(-c2ccccc2)c2cc(Br)c(OC(C)=O)cc12
- EC50 [1]: > 120 µM (not active)
- EC50 [2]: 9.69 µM (active)
- EC50 [3]: > 120 µM (not active)
- IC50 [4]: 3.23 µM (active)
- AC50 [5]: 5.9 µM (active)
- EC50 [6]: 9.76 µM (active)
- IC50 [7]: > 122 µM (inactive)
- EC50 [8]: > 59.6 µM (inactive)
- EC50 [9]: > 59.6 µM (inactive)

Structure (SMILES): COCCCNC(=S)NCCCNc1nc2cc3c(cc2cc1C#N)OCO3
- IC50 [10]: 1.2 µM (active)

Structure (SMILES): CC[n+]1c(C=CN(C)c2ccccc2)sc2ccc(Cl)cc21.[O-][Cl+3]([O-])([O-])[O-]
- EC50 [11]: > 150 µM (inactive)
- EC50 [12]: 3.29 µM (active)
- EC50 [13]: < 0.1 µM (active)
- EC50 [14]: 5.94 µM (active)
- AC50 [15]: inconclusive
- AC50 [16]: 26.3 µM (active)
- AC50 [17]: 59.3 µM (active)
- AC50 [18]: 39.8 µM (active)
- AC50 [19]: 13 µM (active)
- AC50 [20]: 8.92 µM (active)
- EC50 [21]: 0.146 µM (active)

Structure (SMILES): Cn1cc(Cl)c(C(=O)NN=C(S)Nc2cccc(Cl)c2)n1
- IC50 [7]: > 122 µM (inactive)

Structure (SMILES): CCc1ccc2oc(C(=O)N3CCN(c4ccc(OC)cc4)CC3)cc(=O)c2c1
- IC50 [22]: > 80 µM (inactive)

Structure (SMILES): Cc1ccc2cc3c(NC(=O)c4ccco4)nn(C)c3nc2c1
- AC50 [23]: 179 µM (active)
- AC50 ([23]; 24 h): 121 µM (active)

Structure (SMILES): Cc1cccc(N2CCN(C(=O)c3ccc4[nH]c(C)c(C)c4c3)CC2)c1C
- IC50 [24]: > 80 µM (inactive)
- IC50 [22]: > 80 µM (inactive)

Structure (SMILES): Cc1ccc2nc(NC(=O)COC(=O)c3cccnc3)sc2c1
- IC50 [25]: > 67.5 µM (inactive)
- IC50 [26]: > 67.5 µM (inactive)

Structure (SMILES): CC(=O)N(C)C[C@H]1Oc2cc(/C=C/c3ccccc3)ccc2S(=O)(=O)N([C@@H](C)CO)C[C@H]1C
- AC50 [27]: 26.9 µM (active)
- AC50 [28]: 0.451 µM (active)

Structure (SMILES): C[C@@H]1CN([C@@H](C)CO)C(=O)Cc2cc(NS(=O)(=O)c3cccs3)ccc2O[C@H]1CN(C)Cc1ccc(Cl)c(Cl)c1
- AC50 [16]: 9.27 µM (active)
- AC50 [18]: < 0.26 µM (active)
- AC50 [20]: 0.486 µM (active)

Structure (SMILES): C[C@H](CO)N1C[C@H](C)[C@H](CN(C)C(=O)Nc2cccc3ccccc23)OCCCC[C@H](C)Oc2ccc(NC(=O)NC3CCCCC3)cc2C1=O
- AC50 [29]: 4.13 µM (active)
- AC50 [30]: 45.6 µM (active)

Structure (SMILES): C[C@@H]1CN([C@@H](C)CO)C(=O)c2cc(NC(=O)c3ccncc3)ccc2O[C@@H](C)CCCCO[C@H]1CN(C)C(=O)Nc1cccc2ccccc12
- AC50 [31]: 14.3 µM (active)
- AC50 [32]: 17.1 µM (active)
- AC50 [29]: 2.91 µM (active)
- AC50 [30]: 9.74 µM (active)
- AC50 [33]: 17.1 µM (active)

Structure (SMILES): C/C(=N/NC(=O)c1ccoc1C)c1cccc(NC(=O)C(F)(F)F)c1
- IC50 [25]: > 67.5 µM (inactive)
- IC50 [26]: > 67.5 µM (inactive)

Structure (SMILES): CCNC(=S)N/N=C/c1cn(Cc2ccccc2F)c2ccccc12
- EC50 [34]: 15.9 µM (active)
- EC50 [35]: 24.4 µM (active)
- EC50 [36]: 19.7 µM (active)
- IC50 [37]: > 69.5 µM (inactive)
- IC50 [38]: > 69.5 µM (inactive)

Structure (SMILES): CN(C)c1ccc(/C=N\NC(=O)CC#N)cc1
- IC50 [10]: > 1.11 µM (active)

— ChEMBL document CHEMBL1201862, “PubChem BioAssay data set” (2004)
